Earlier results as cited in paper PMC9516332 (Frontiers in Oncology, 2022).
Like-named read-outs stand apart in the source and are kept apart here.

Assays:
[1] = molecular target: panel of 255 wild-type kinases (Homo sapiens, UniProt P54764); settings: kinase EPHA4, 1 µmol/L single concentration, cited from earlier work
[2] = molecular target: T1, panel of 255 wild-type kinases (Homo sapiens, UniProt P42681); settings: kinase TXK, 1 µmol/L single concentration, cited from earlier work
T1 sequence (P42681 1-527): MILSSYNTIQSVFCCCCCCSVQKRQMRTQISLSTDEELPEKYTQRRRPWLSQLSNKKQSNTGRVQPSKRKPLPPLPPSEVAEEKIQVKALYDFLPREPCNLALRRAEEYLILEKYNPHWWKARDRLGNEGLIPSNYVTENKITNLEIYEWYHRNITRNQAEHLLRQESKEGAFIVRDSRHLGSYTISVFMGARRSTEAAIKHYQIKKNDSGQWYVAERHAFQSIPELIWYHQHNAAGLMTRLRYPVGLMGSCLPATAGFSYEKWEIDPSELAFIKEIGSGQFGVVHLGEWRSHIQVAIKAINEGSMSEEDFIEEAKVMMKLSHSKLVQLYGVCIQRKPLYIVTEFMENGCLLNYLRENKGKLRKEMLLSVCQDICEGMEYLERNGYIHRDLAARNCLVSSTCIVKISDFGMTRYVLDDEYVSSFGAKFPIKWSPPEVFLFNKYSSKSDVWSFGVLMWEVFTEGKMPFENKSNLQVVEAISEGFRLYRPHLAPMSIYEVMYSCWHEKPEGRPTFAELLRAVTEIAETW

[3] = molecular target: panel of 255 wild-type kinases (Homo sapiens, UniProt P42685); settings: kinase FRK, 1 µmol/L single concentration, cited from earlier work
[4] = molecular target: panel of 255 wild-type kinases (Homo sapiens, UniProt Q5VT25); settings: MRCKα, 1 µmol/L single concentration, cited from earlier work
[5] = molecular target: panel of 255 wild-type kinases (Homo sapiens, UniProt Q9BUB5); settings: MNK1, 1 µmol/L single concentration, cited from earlier work
[6] = molecular target: panel of 255 wild-type kinases (Homo sapiens, UniProt P11802); settings: CDK4/CycD3 kinase assay, 1 µmol/L single concentration, cited from earlier work
[7] = molecular target: panel of 255 wild-type kinases (Homo sapiens, UniProt P45983); settings: kinase JNK1, 1 µmol/L single concentration, cited from earlier work
[8] = molecular target: T2, panel of 255 wild-type kinases (Homo sapiens, UniProt Q9H093); settings: NuaK2, 1 µmol/L single concentration, cited from earlier work
T2 sequence (Q9H093 1-628): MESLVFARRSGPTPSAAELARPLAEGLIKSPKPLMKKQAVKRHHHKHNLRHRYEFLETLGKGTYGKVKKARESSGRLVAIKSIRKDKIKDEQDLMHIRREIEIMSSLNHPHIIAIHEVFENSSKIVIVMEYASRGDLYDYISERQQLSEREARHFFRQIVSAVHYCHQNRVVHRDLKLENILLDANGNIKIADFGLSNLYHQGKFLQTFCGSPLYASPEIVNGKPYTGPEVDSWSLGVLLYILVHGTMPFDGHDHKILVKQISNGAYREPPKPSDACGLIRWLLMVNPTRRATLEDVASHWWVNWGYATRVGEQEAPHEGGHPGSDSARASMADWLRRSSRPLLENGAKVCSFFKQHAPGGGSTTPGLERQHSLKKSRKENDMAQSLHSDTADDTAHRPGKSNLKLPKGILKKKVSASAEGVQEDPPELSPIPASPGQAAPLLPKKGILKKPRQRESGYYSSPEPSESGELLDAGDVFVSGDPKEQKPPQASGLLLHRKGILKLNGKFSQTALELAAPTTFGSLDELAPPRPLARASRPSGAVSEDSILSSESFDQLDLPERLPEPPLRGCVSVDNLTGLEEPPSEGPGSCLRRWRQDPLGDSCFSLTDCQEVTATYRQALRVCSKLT

[9] = molecular target: T3, panel of 255 wild-type kinases (Homo sapiens, UniProt P42680); settings: kinase TEC, 1 µmol/L single concentration, cited from earlier work
T3 sequence (P42680 1-631): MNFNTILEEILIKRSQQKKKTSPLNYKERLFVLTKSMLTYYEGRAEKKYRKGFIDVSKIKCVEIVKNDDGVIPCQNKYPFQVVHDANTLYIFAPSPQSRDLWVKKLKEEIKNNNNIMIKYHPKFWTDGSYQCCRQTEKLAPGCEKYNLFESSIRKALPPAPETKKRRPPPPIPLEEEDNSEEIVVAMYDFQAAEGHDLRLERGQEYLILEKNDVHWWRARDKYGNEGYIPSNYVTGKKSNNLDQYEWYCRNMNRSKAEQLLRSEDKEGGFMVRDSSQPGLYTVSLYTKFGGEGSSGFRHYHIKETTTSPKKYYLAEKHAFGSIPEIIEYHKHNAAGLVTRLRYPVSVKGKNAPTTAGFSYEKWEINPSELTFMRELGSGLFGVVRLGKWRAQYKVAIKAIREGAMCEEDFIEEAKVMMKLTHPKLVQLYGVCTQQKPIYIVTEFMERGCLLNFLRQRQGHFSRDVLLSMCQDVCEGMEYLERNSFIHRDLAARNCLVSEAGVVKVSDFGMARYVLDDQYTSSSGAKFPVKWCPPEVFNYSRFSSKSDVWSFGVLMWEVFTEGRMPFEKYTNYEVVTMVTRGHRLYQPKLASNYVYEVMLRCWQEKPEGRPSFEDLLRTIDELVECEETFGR

[10] = molecular target: panel of 255 wild-type kinases (Homo sapiens, UniProt Q9UKE5); settings: cited from earlier work
[11] = molecular target: panel of 255 wild-type kinases (Homo sapiens, UniProt P35916); settings: kinase FLT4, 1 µmol/L single concentration, cited from earlier work
[12] = ref DOI: 10.1158/1535-7163.MCT-18-0877
[13] = kinase TNIK, 1 µmol/L single concentration, ref DOI: 10.1158/1535-7163.MCT-18-0877
[14] = ref DOI: 10.1371/journal.pone.0092146

In the case of `C=CC(=O)Nc1cc(Nc2nccc(-c3cn(C)c4ccccc34)n2)c(OC)cc1N(C)CCN(C)C` [osimertinib], the “%-inhibition at 1 µmol/L, EPHA4” value [1, 12] is given as 3.54%, the “%-inhibition at 1 µmol/L, TXK” value [2, 12] is given as 82% and the “%-inhibition at 1 µmol/L, FRK” value [3, 12] is given as 34%. For the same molecule, the “%-inhibition, MRCKα” value [4, 12] was -4.55%, the “%-inhibition, MNK1” value [5, 12] was 99% and the “%-inhibition CDK4/CycD3” value [6, 12] was 2.42%. For the same molecule, the “%-inhibition at 1 µmol/L, JNK1” value [7, 12] was -2.12%, the “%-inhibition, NuaK2” value [8, 12] was 4% and the “%-inhibition at 1 µmol/L, TEC” value [9, 12] was 86%. For the same molecule, the “%-inhibition at 1 µmol/L, TNIK” value [10, 13] was 84% and the “%-inhibition at 1 µmol/L, FLT4” value [11, 12] was 40%.
In the case of `CO[C@@H]1[C@H](N(C)C(=O)c2ccccc2)C[C@H]2O[C@]1(C)n1c3ccccc3c3c4c(c5c6ccccc6n2c5c31)C(=O)NC4` [midostaurin], the “%-inhibition at 1 µmol/L, EPHA4” value [1, 12] is listed as 2.15%, the “%-inhibition at 1 µmol/L, TXK” value [2, 12] is listed as 25% and the “%-inhibition at 1 µmol/L, FRK” value [3, 12] is listed as 70%. The “%-inhibition, MRCKα” value [4, 12] was 14%, the “%-inhibition, MNK1” value [5, 12] was 50% and the “%-inhibition CDK4/CycD3” value [6, 12] was -1.1%. The “%-inhibition at 1 µmol/L, JNK1” value [7, 12] was 9%, the “%-inhibition, NuaK2” value [8, 12] was 99% and the “%-inhibition at 1 µmol/L, TEC” value [9, 12] was 58%. The “%-inhibition at 1 µmol/L, TNIK” value [10, 13] was 94% and the “%-inhibition at 1 µmol/L, FLT4” value [11, 12] was 99%.
In the case of `C=CC(=O)N1CCC[C@@H](n2nc(-c3ccc(Oc4ccccc4)cc3)c3c(N)ncnc32)C1` [ibrutinib], the “%-inhibition at 1 µmol/L, EPHA4” value [1, 12] is given as 13%, the “%-inhibition at 1 µmol/L, TXK” value [2, 12] is given as 98% and the “%-inhibition at 1 µmol/L, FRK” value [3, 12] is given as 100%. The “%-inhibition, MRCKα” value [4, 12] was -0.621%, the “%-inhibition, MNK1” value [5, 12] was 15% and the “%-inhibition CDK4/CycD3” value [6, 12] was 4%. The “%-inhibition at 1 µmol/L, JNK1” value [7, 12] was -2.33%, the “%-inhibition, NuaK2” value [8, 12] was 6.37% and the “%-inhibition at 1 µmol/L, TEC” value [9, 12] was 92%. For the same molecule, the “%-inhibition at 1 µmol/L, TNIK” value [10, 13] was -1.62% and the “%-inhibition at 1 µmol/L, FLT4” value [11, 12] was 91%.
In the case of `C[C@@H](Oc1cc(-c2cnn(C3CCNCC3)c2)cnc1N)c1c(Cl)ccc(F)c1Cl` [crizotinib], the “%-inhibition at 1 µmol/L, EPHA4” value [1, 14] is given as 58%, the “%-inhibition at 1 µmol/L, TXK” value [2, 14] is given as 39% and the “%-inhibition at 1 µmol/L, FRK” value [3, 14] is given as 26%. For the same molecule, the “%-inhibition, MRCKα” value [4, 14] was -8%, the “%-inhibition, MNK1” value [5, 14] was 0% and the “%-inhibition CDK4/CycD3” value [6, 14] was 7%. For the same molecule, the “%-inhibition at 1 µmol/L, JNK1” value [7, 14] was 0.431%, the “%-inhibition, NuaK2” value [8, 14] was 87% and the “%-inhibition at 1 µmol/L, TEC” value [9, 14] was 1.53%. For the same molecule, the “%-inhibition at 1 µmol/L, TNIK” value [10] was 11% and the “%-inhibition at 1 µmol/L, FLT4” value [11, 14] was 48%.
